Measured values reported in PubChem BioAssay (NCI).
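The concentration for 50% growth inhibition is given as GI50. TGI: total growth inhibition.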

Columns and labels:
Test in all cases: growth of human tumour cells (NCI), 384-well format
U251 glioblastoma = tested on: U251 glioblastoma
PC-3 prostate = tested on: PC-3 prostate
ACHN renal = tested on: ACHN renal
OVCAR-3 ovarian = tested on: OVCAR-3 ovarian
MDA-MB-435 melanoma = tested on: MDA-MB-435 melanoma
RPMI-8226 leukemia = tested on: RPMI-8226 leukemia
TK-10 renal = tested on: TK-10 renal
SNB-19 CNS = tested on: SNB-19 CNS
786-0 renal = tested on: 786-0 renal
OVCAR-5 ovarian = tested on: OVCAR-5 ovarian
SK-MEL-2 melanoma = tested on: SK-MEL-2 melanoma
SK-MEL-5 melanoma = tested on: SK-MEL-5 melanoma
IGROV1 ovarian = tested on: IGROV1 ovarian
DU-145 prostate = tested on: DU-145 prostate
HCT-15 colon = tested on: HCT-15 colon
HOP-92 NSCLC = tested on: HOP-92 NSCLC
MDA-MB-468 breast = tested on: MDA-MB-468 breast
UACC-62 melanoma = tested on: UACC-62 melanoma
SK-MEL-28 melanoma = tested on: SK-MEL-28 melanoma
SF-295 CNS = tested on: SF-295 CNS
NCI-H322M lung = tested on: NCI-H322M lung
HT29 colon = tested on: HT29 colon
OVCAR-4 ovarian = tested on: OVCAR-4 ovarian
MDA-MB-231 breast = tested on: MDA-MB-231 breast
CCRF-CEM leukemia = tested on: CCRF-CEM leukemia
MCF7 breast = tested on: MCF7 breast
SW-620 colon = tested on: SW-620 colon
NCI/ADR-RES ovarian = tested on: NCI/ADR-RES ovarian
NCI-H460 NSCLC = tested on: NCI-H460 NSCLC
UACC-257 melanoma = tested on: UACC-257 melanoma
EKVX NSCLC = tested on: EKVX NSCLC
SR leukemia = tested on: SR leukemia
MALME-3M melanoma = tested on: MALME-3M melanoma
A549 NSCLC = tested on: A549 NSCLC
HS 578T breast = tested on: HS 578T breast
NCI-H522 lung = tested on: NCI-H522 lung
SF-268 CNS = tested on: SF-268 CNS
NCI-H226 lung = tested on: NCI-H226 lung
SK-OV-3 ovarian = tested on: SK-OV-3 ovarian
M14 melanoma = tested on: M14 melanoma
UO-31 renal = tested on: UO-31 renal
SF-539 CNS = tested on: SF-539 CNS
HOP-62 NSCLC = tested on: HOP-62 NSCLC
NCI-H23 lung = tested on: NCI-H23 lung
KM12 colon = tested on: KM12 colon
CAKI-1 renal = tested on: CAKI-1 renal
COLO 205 colon = tested on: COLO 205 colon
HCC-2998 colon = tested on: HCC-2998 colon
RXF 393 renal = tested on: RXF 393 renal
HCT-116 colon = tested on: HCT-116 colon
HL-60(TB) leukemia = tested on: HL-60(TB) leukemia
BT-549 breast = tested on: BT-549 breast
K-562 leukemia = tested on: K-562 leukemia
A498 renal = tested on: A498 renal
SNB-75 CNS = tested on: SNB-75 CNS
T-47D breast = tested on: T-47D breast
MOLT-4 leukemia = tested on: MOLT-4 leukemia

Molecule `CS(=O)(=O)c1ccc(-c2cnc(N)c(C(=O)Nc3ccccc3)n2)cc1` has a GI50 (U251 glioblastoma) of 6.52 µM, a TGI (U251 glioblastoma) greater than 100 µM and a GI50 (PC-3 prostate) of 15 µM. It also gave a TGI (PC-3 prostate) greater than 100 µM, a GI50 (ACHN renal) of 3.02 µM and a TGI (ACHN renal) of 16.1 µM. It also gave a GI50 (OVCAR-3 ovarian) of 12.1 µM, a TGI (OVCAR-3 ovarian) greater than 100 µM and a GI50 (MDA-MB-435 melanoma) greater than 100 µM. It also gave a TGI (MDA-MB-435 melanoma) greater than 100 µM, a GI50 (RPMI-8226 leukemia) of 3.12 µM and a TGI (RPMI-8226 leukemia) greater than 100 µM. It also gave a GI50 (TK-10 renal) of 2.75 µM, a TGI (TK-10 renal) of 18.7 µM and a GI50 (SNB-19 CNS) of 28.2 µM. For the same molecule, the TGI (SNB-19 CNS) was greater than 100 µM, the GI50 ([…]-0 renal) was 3.11 µM and the TGI (786-0 renal) was 65.7 µM. The GI50 (OVCAR-5 ovarian) was 33.6 µM, the TGI (OVCAR-5 ovarian) was greater than 100 µM and the GI50 (SK-MEL-2 melanoma) was 5.35 µM. For the same molecule, the TGI (SK-MEL-2 melanoma) was 13.2 µM, the GI50 (SK-MEL-5 melanoma) was 16.1 µM and the TGI (SK-MEL-5 melanoma) was greater than 100 µM. It also gave a GI50 (IGROV1 ovarian) of 2.9 µM, a TGI (IGROV1 ovarian) greater than 100 µM and a GI50 (DU-145 prostate) of 4.53 µM. For the same molecule, the TGI (DU-145 prostate) was greater than 100 µM, the GI50 (HCT-15 colon) was 3.32 µM and the TGI (HCT-15 colon) was greater than 100 µM. The GI50 (HOP-92 NSCLC) was 4.58 µM, the TGI (HOP-92 NSCLC) was greater than 100 µM and the GI50 (MDA-MB-468 breast) was 2.6 µM. For the same molecule, the TGI (MDA-MB-468 breast) was greater than 100 µM, the GI50 (UACC-62 melanoma) was 18.9 µM and the TGI (UACC-62 melanoma) was greater than 100 µM. The GI50 (SK-MEL-28 melanoma) was greater than 100 µM, the TGI (SK-MEL-28 melanoma) was greater than 100 µM and the GI50 (SF-295 CNS) was 7.75 µM. The TGI (SF-295 CNS) was greater than 100 µM, the GI50 (NCI-H322M lung) was 14.9 µM and the TGI (NCI-H322M lung) was greater than 100 µM. It also gave a GI50 (HT29 colon) of 3.76 µM, a TGI (HT29 colon) greater than 100 µM and a GI50 (OVCAR-4 ovarian) of 11.9 µM. It also gave a TGI (OVCAR-4 ovarian) of 93 µM, a GI50 (MDA-MB-231 breast) of 62.3 µM and a TGI (MDA-MB-231 breast) greater than 100 µM. For the same molecule, the GI50 (CCRF-CEM leukemia) was 1.51 µM, the TGI (CCRF-CEM leukemia) was 3.01 µM and the GI50 (MCF7 breast) was 2.78 µM. For the same molecule, the TGI (MCF7 breast) was greater than 100 µM, the GI50 (SW-620 colon) was greater than 100 µM and the TGI (SW-620 colon) was greater than 100 µM. The GI50 (NCI/ADR-RES ovarian) was greater than 100 µM, the TGI (NCI/ADR-RES ovarian) was greater than 100 µM and the GI50 (NCI-H460 NSCLC) was 3.73 µM. It also gave a TGI (NCI-H460 NSCLC) greater than 100 µM, a GI50 (UACC-257 melanoma) greater than 100 µM and a TGI (UACC-257 melanoma) greater than 100 µM. It also gave a GI50 (EKVX NSCLC) greater than 100 µM, a TGI (EKVX NSCLC) greater than 100 µM and a GI50 (SR leukemia) of 0.603 µM. It also gave a TGI (SR leukemia) of 4.57 µM, a GI50 (MALME-3M melanoma) of 37.2 µM and a TGI (MALME-3M melanoma) greater than 100 µM. For the same molecule, the GI50 (A549 NSCLC) was 5.47 µM, the TGI (A549 NSCLC) was greater than 100 µM and the GI50 (HS 578T breast) was 4.54 µM. The TGI (HS 578T breast) was 49.9 µM, the GI50 (NCI-H522 lung) was 5.61 µM and the TGI (NCI-H522 lung) was greater than 100 µM. The GI50 (SF-268 CNS) was greater than 100 µM, the TGI (SF-268 CNS) was greater than 100 µM and the GI50 (NCI-H226 lung) was 46.8 µM. For the same molecule, the TGI (NCI-H226 lung) was greater than 100 µM, the GI50 (SK-OV-3 ovarian) was 3.68 µM and the TGI (SK-OV-3 ovarian) was 40 µM. The GI50 (M14 melanoma) was 5.68 µM, the TGI (M14 melanoma) was greater than 100 µM and the GI50 (UO-31 renal) was 6.65 µM. The TGI (UO-31 renal) was 22.1 µM, the GI50 (SF-539 CNS) was 5.27 µM and the TGI (SF-539 CNS) was greater than 100 µM. For the same molecule, the GI50 (HOP-62 NSCLC) was 7.72 µM, the TGI (HOP-62 NSCLC) was greater than 100 µM and the GI50 (NCI-H23 lung) was 3.02 µM. It also gave a TGI (NCI-H23 lung) of 58.7 µM, a GI50 (KM12 colon) of 40 µM and a TGI (KM12 colon) greater than 100 µM. It also gave a GI50 (CAKI-1 renal) of 5.25 µM, a TGI (CAKI-1 renal) of 18.4 µM and a GI50 (COLO 205 colon) of 29.5 µM. For the same molecule, the TGI (COLO 205 colon) was greater than 100 µM, the GI50 (HCC-2998 colon) was 0.543 µM and the TGI (HCC-2998 colon) was 9.37 µM. The GI50 (RXF 393 renal) was 6.56 µM, the TGI (RXF 393 renal) was 43.4 µM and the GI50 (HCT-116 colon) was greater than 100 µM. For the same molecule, the TGI (HCT-116 colon) was greater than 100 µM, the GI50 (HL-60(TB) leukemia) was 3.34 µM and the TGI (HL-60(TB) leukemia) was 9.07 µM. For the same molecule, the GI50 (BT-549 breast) was 2.6 µM, the TGI (BT-549 breast) was 11.5 µM and the GI50 (K-562 leukemia) was 4.62 µM. For the same molecule, the TGI (K-562 leukemia) was greater than 100 µM, the GI50 (A498 renal) was 2.78 µM and the TGI (A498 renal) was 28.6 µM. It also gave a GI50 (SNB-75 CNS) of 16.6 µM, a TGI (SNB-75 CNS) greater than 100 µM and a GI50 (T-47D breast) greater than 100 µM. It also gave a TGI (T-47D breast) greater than 100 µM, a GI50 (MOLT-4 leukemia) of 1.46 µM and a TGI (MOLT-4 leukemia) of 2.81 µM.
